Values quoted from earlier work, collected in patent US20110160143A1, “Topical Acyl Glutathione Psoriasis Compositions” (priority 2009, published 2011).

Tested on: HIV patients
Conditions: oral administration

For O=C(O)CCCCC1CCSS1 (stereo not drawn) [alpha-lipoic acid, Alpha-lipoic acid], the glutathione levels is given as “raises glutathione levels” and the safety and tolerability is given as “extremely safe and well tolerated”.
